In US9896441B2 (Lycera Corporation, priority 2014, dated 2018):

Assays:
RORγ-LBD = target: T1, RORγ-LBD (Homo sapiens, UniProt P51449); experiment: RORγ-Ligand Binding Domain (LBD) TR-FRET Assay; assay type: biochemical; conditions: for TR-FRET Assay Max Response: maximum response;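 on TR-FRET Assay Max Response: 665/615 nm signal ratio set to 100 without ursolic acid or test compound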
T1 construct: made in house; host or cells: SF9 cells (baculovirus); used as diluted lysate
T1 sequence (P51449 269-508 limits assumed): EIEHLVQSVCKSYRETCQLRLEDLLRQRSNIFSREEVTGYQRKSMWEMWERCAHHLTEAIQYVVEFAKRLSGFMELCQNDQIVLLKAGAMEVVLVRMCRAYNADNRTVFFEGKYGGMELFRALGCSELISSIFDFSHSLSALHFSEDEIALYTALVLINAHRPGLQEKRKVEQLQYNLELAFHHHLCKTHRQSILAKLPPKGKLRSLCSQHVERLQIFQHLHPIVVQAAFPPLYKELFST
Procedure, shortened: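 His-tagged RORγ-LBD from SF9 baculovirus lysate, ~3 nM final, in 50 mM Tris pH 7.0, 50 mM KCl, 1 mM EDTA, 0.1 mM DTT, 0.01% BSA. Biotinylated SRC1 LXXLL peptide at 200 nM final with 2 μM ursolic acid; TR-FRET read-out, 1% DMSO final.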

Gal4-RORγ-LBD = target: T2, Gal4-RORγ-LBD (Homo sapiens, UniProt P51449); experiment: Gal4-RORγ Luciferase Reporter Assay in HEK-293T Cells; assay type: cell-based; conditions: HEK-293 cells, luciferase reporter; for Gal4-RORγ Assay Max Response: maximum response
T2 construct: expressed in transfected cells
T2 sequence (P51449 269-508 limits assumed): T1 sequence (P51449 269-508 limits assumed)
Procedure, shortened: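 HEK-293 cells were co-transfected with Gal4-RORγ-LBD and a Gal4-luciferase reporter, then exposed overnight at 37 °C to compounds with […] ursolic acid present (0.2% DMSO). Luminescence was read with One-Glo after 10 min at RT, untreated signal was set as 100, and Max Response was taken as the upper plateau of a 4-parameter logistic fit.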

EC50 (RORγ-LBD; RORγ-LBD TR-FRET) [nM]	EC50 (Gal4-RORγ-LBD; with ursolic acid) [nM]	EC50 (RORγ-LBD; RORγ-LBD TR-FRET assay) [nM]	EC50 (Gal4-RORγ-LBD; in presence of ursolic acid) [nM]	SMILES	TR-FRET Assay Max Response (RORγ-LBD; RORγ-LBD TR-FRET assay)	Gal4-RORγ Assay Max Response (Gal4-RORγ-LBD; in presence of ursolic acid)
< 500	< 500	–	–	COC(=O)CC[C@H]1CN(S(=O)(=O)c2cccc(OC(F)F)c2)c2cc(/C=C/c3c(Cl)cccc3Cl)ccc2O1 [Example 89CS, methyl (S,E)-3-(6-(2,6-dichlorostyryl)-4-((3-(difluoromethoxy)phenyl)sulfonyl)-3,4-dihydro-2H-benzo[b][1,4]-oxazin-2-yl)propanoate]	–	–
< 500	< 500	–	–	CCOc1nn(CC)cc1S(=O)(=O)N1C[C@H](CCC(=O)OC)Oc2ccc(/C=C/c3ccccc3SC)cc21 [Example 89AV, (S,E)-methyl 3-(4-((3-ethoxy-1-ethyl-1H-pyrazol-4-yl)sulfonyl)-6-(2-(methylthio)styryl)-3,4-dihydro-2H-benzo[b][1,4]oxazin-2-yl)propanoate]	–	–
< 500	< 500	–	–	CCn1cc(S(=O)(=O)N2C[C@H]([C@@H](C)NC(C)=O)Oc3ccc(/C=C(\C)c4c(F)cccc4Cl)cc32)c(Cl)n1 [Example 102, N—((R)-1-((R)-4-((3-Chloro-1-ethyl-1H-pyrazol-4-yl)sulfonyl)-6-((E)-2-(2-chloro-6-fluorophenyl)prop-1-en-1-yl)-3,4-dihydro-2H-benzo[b][1,4]oxazin-2-yl)ethyl)acetamide]	–	–
< 500	500 to 5000	–	–	C[C@H](O)COc1ncc(C(F)(F)F)cc1S(=O)(=O)N1C[C@H](CCC(=O)O)Oc2ccc(/C=C/c3c(F)cccc3Cl)cc21 [Example 89FM, 3-((S)-6-((E)-2-chloro-6-fluorostyryl)-4-((2-((S)-2-hydroxypropoxy)-5-(trifluoromethyl)pyridin-3-yl)sulfonyl)-3,4-dihydro-2H-benzo[b][1,4]oxazin-2-yl)propanoic acid]	–	–
–	–	< 500	< 500	C/C(=C\c1ccc2c(c1)N(S(=O)(=O)c1cccc(C(F)(F)F)c1)C[C@H](CCO)O2)c1c(F)cccc1Cl [Example 106, (S,E)-2-(6-(2-(2-Chloro-6-fluorophenyl)prop-1-en-1-yl)-4-((3-(trifluoromethyl)phenyl)sulfonyl)-3,4-dihydro-2H-benzo[b][1,4]oxazin-2-yl)ethanol]	*** (a value in the range of greater than 150 to 200)	** (a value in the range of greater than 90 to 150)
< 500	500 to 5000	–	–	O=C(O)CC[C@H]1CN(S(=O)(=O)c2cc(C(F)(F)F)cnc2OCCO)c2cc(C=C3CCOCC3)ccc2O1 [Example 95O, (S)-3-(4-((2-(2-hydroxyethoxy)-5-(trifluoromethyl)pyridin-3-yl)sulfonyl)-6-((tetrahydro-4H-pyran-4-ylidene)methyl)-3,4-dihydro-2H-benzo[b][1,4]oxazin-2-yl)propanoic acid]	–	–
–	–	< 500	500 to 5000	CCn1cc(S(=O)(=O)N2C[C@H](CNC(C)=O)Oc3ccc(/C=C/c4c(F)cccc4Cl)cc32)c(Cl)n1 [Example 109D, (S,E)-N-((4-((3-chloro-1-ethyl-1H-pyrazol-4-yl)sulfonyl)-6-(2-chloro-6-fluorostyryl)-3,4-dihydro-2H-benzo[b][1,4]oxazin-2-yl)methyl)acetamide]	*** (a value in the range of greater than 150 to 200)	** (a value in the range of greater than 90 to 150)
< 500	> 10000	–	–	Cc1ccc(F)c(/C=C/c2ccc3c(c2)N(S(=O)(=O)c2cccc(C(F)(F)F)c2)C[C@H](CCC(=O)O)O3)c1 [Example 89CA, (S,E)-3-(6-(2-fluoro-5-methylstyryl)-4-((3-(trifluoromethyl)phenyl)sulfonyl)-3,4-dihydro-2H-benzo[b][1,4]oxazin-2-yl)propanoic acid]	–	–
–	–	< 500	500 to 5000	O=C(O)CC[C@H]1CC(S(=O)(=O)c2cccc(C(F)(F)F)c2)c2cc(OCc3c(F)cccc3Cl)ccc2O1 (stereo in doubt) [Example 186A, 3-(6-((2-chloro-6-fluorobenzyl)-oxy)-4-((3-(trifluoromethyl)-phenyl)sulfonyl)chroman-2-yl)propanoic acid]	–	–
< 500	500 to 5000	–	–	CC1CCC(=Cc2ccc3c(c2)N(S(=O)(=O)c2cc(C(F)(F)F)cnc2OCCO)C[C@H](CCC(=O)O)O3)CC1 (stereo partly drawn) [Example 95P, 3-((2S)-4-((2-(2-hydroxyethoxy)-5-(trifluoromethyl)pyridin-3-yl)sulfonyl)-6-((4-methylcyclohexylidene)methyl)-3,4-dihydro-2H-benzo[b][1,4]oxazin-2-yl)propanoic acid]	–	–
< 500	500 to 5000	–	–	CCOc1ncc(Cl)cc1S(=O)(=O)N1C[C@H](CCC(=O)O)Oc2ccc(/C=C/c3c(Cl)cccc3C(F)(F)F)cc21 [Example 89CZ, (S,E)-3-(4-((5-chloro-2-ethoxypyridin-3-yl)sulfonyl)-6-(2-chloro-6-(trifluoromethyl)-styryl)-3,4-dihydro-2H-benzo-[b][1,4]oxazin-2-yl)propanoic acid]	–	–
500 to 5000	> 10000	–	–	CCOc1nn(CC)cc1S(=O)(=O)N1C[C@H](CCC(=O)OC)Oc2ccc(/C=C/c3cccnc3)cc21 [Example 89J, (S,E)-methyl 3-(4-((3-ethoxy-1-ethyl-1H-pyrazol-4-yl)sulfonyl)-6-(2-(pyridin-3-yl)vinyl)-3,4-dihydro-2H-benzo[b][1,4]oxazin-2-yl)propanoate]	–	–
–	–	< 500	< 500	C/C(=C\c1ccc2c(c1)N(S(=O)(=O)c1cccc(C(F)(F)F)c1)C[C@H](CCC(=O)N1CCC(C(N)=O)CC1)O2)c1c(F)cccc1Cl [Example 127A, (S,E)-1-(3-(6-(2-(2-chloro-6-fluoro-phenyl)-prop-1-en-1-yl)-4-((3-(trifuoromethyl)phenyl)sulfonyl)-3,4-dihydro-2H-benzo[b][1,4]oxazin-2-yl)propanoyl)piperidine-4-carboxamide]	**** (a value greater than 200)	** (a value in the range of greater than 90 to 150)
–	–	< 500	< 500	C/C(=C\c1ccc2c(c1)N(S(=O)(=O)c1cccc(C(F)(F)F)c1)C[C@H](CCC(=O)N1CC(C(=O)O)C1)O2)c1c(F)cccc1Cl [Example 129D, (S,E)-1-(3-(6-(2-(2-chloro-6-fluorophenyl)-prop-1-en-1-yl)-4-((3-(trifluoromethyl)phenyl)sulfonyl)-3,4-dihydro-2H-benzo[b][1,4]oxazin-2-yl)propanoyl)azetidine-3-carboxylic acid]	**** (a value greater than 200)	** (a value in the range of greater than 90 to 150)
< 500	< 500	–	–	COC(=O)CC[C@H]1CN(S(=O)(=O)c2ccc(F)c(OC(F)F)c2)c2cc(/C=C(\C)c3c(F)cccc3Cl)ccc2O1 [Example 86AT, (S,E)-methyl 3-(6-(2-(2-chloro-6-fluorophenyl)prop-1-en-1-yl)-4-((3-(difluoromethoxy)-4-fluorophenyl)sulfonyl)-3,4-dihydro-2H-benzo[b][1,4]oxazin-2-yl)propanoate]	–	–
–	–	< 500	500 to 5000	CCOC(=O)C(=O)NCC[C@H]1CN(S(=O)(=O)c2ccc(F)c(OC)c2)c2cc(/C=C(\C)c3c(F)cccc3Cl)ccc2O1 [Example 116C, ethyl (S,E)-2-((2-(6-(2-(2-chloro-6-fluorophenyl)prop-1-en-1-yl)-4-((4-fluoro-3-methoxyphenyl)sulfonyl)-3,4-dihydro-2H-benzo[b][1,4]oxazin-2-yl)ethyl)amino)-2-oxoacetate]	*** (a value in the range of greater than 150 to 200)	** (a value in the range of greater than 90 to 150)
–	–	< 500	< 500	CC(=O)NC[C@H]1CN(S(=O)(=O)c2cccc(C(F)(F)F)c2)c2cc(/C=C(\C)c3c(F)cccc3Cl)ccc2O1 [Example 109C, (S,E)-N-((6-(2-(2-chloro-6-fluorophenyl)prop-1-en-1-yl)-4-((3-(trifluoromethyl)phenyl)-sulfonyl)-3,4-dihydro-2H-benzo[b][1,4]oxazin-2-yl)methyl)acetamide]	** (a value in the range of greater than 90 to 150)	** (a value in the range of greater than 90 to 150)
> 10000	> 10000	–	–	CCOc1nn(CC)cc1S(=O)(=O)N1C[C@H](CCC(=O)O)Oc2ccc(/C=C/c3nccs3)cc21 [Example 89Q, (S,E)-3-(4-((3-ethoxy-1-ethyl-1H-pyrazol-4-yl)sulfonyl)-6-(2-(thiazol-2-yl)vinyl)-3,4-dihydro-2H-benzo[b][1,4]oxazin-2-yl)propanoic acid]	–	–
< 500	< 500	–	–	COC(=O)CC[C@H]1CN(S(=O)(=O)c2ccc(F)c(C3CC3)c2)c2cc(/C=C(\C)c3c(F)cccc3Cl)ccc2O1 [Example 86D, (S,E)-methyl 3-(6-(2-(2-chloro-6-fluorophenyl)prop-1-en-1-yl)-4-((3-cyclopropyl-4-fluorophenyl)-sulfonyl)-3,4-dihydro-2H-benzo[b][1,4]oxazin-2-yl)propanoate]	–	–
